Source: US6737383B1, “Herbicidal oxadiazolidines” (priority 1999, dated 2004)

Experiments:
giant foxtail = experiment: Test B pre/postemergence giant foxtail; assay type: in vivo, Setaria faberii; conditions: for Giant foxtail plant response rating (0 to 10 scale): 0 is no effect
How it was run: (§1)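 Herbicidal effect was estimated by eye on a ten-point control scale after plants spent twelve to sixteen days in a greenhouse following soil or foliar treatment. Foliar sprays targeted plants at one to four leaves; all doses were formulated in a non-phytotoxic solvent with surfactant.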

pigweed = experiment: Test B pre/postemergence pigweed; assay type: in vivo, Amaranthus retroflexus; conditions: for Redroot pigweed plant response rating (0 to 10 scale): 0 is no effect
How it was run: as §1

morningglory = experiment: Test B pre/postemergence morningglory; assay type: in vivo, Ipomoea hederacea; conditions: for Morningglory plant response rating (0 to 10 scale): 0 is no effect
How it was run: as §1

[1] = Postemergence, Rate 62 g/ha, scale 0 to 10, 0 is no effect, 10 is complete control
[2] = Postemergence, Rate 125 g/ha, scale of 0 to 10 where 0 is no effect and 10 is complete control
[3] = Postemergence, Rate 250 g/ha, scale of 0 to 10, 0 is no effect, 10 is complete control
[4] = Postemergence, Rate 500 g/ha, scale of 0 to 10 where 0 is no effect and 10 is complete control
[5] = Preemergence, Rate 62 g/ha, scale of 0 to 10 where 0 is no effect and 10 is complete control
[6] = Preemergence, Rate 125 g/ha, scale of 0 to 10 where 0 is no effect and 10 is complete control
[7] = Preemergence, Rate 250 g/ha, scale 0 to 10 (0 no effect, 10 complete control)
[8] = Preemergence, Rate 500 g/ha, scale of 0 to 10 where 0 is no effect and 10 is complete control
[9] = Preemergence, Rate 250 g/ha, scale of 0 to 10 where 0 is no effect and 10 is complete control
[10] = Rate 62 g/ha, Postemergence, scale of 0 to 10 where 0 is no effect and 10 is complete control
[11] = Rate 125 g/ha, Postemergence, scale 0 to 10
[12] = Rate 125 g/ha, Preemergence, scale of 0 to 10 where 0 is no effect and 10 is complete control
[13] = Rate 500 g/ha, Postemergence, scale 0 to 10, 0 no effect, 10 complete control
[14] = Preemergence, Rate 62 g/ha, scale 0 to 10 (0 no effect, 10 complete control)
[15] = Preemergence, Rate 125 g/ha, 10 is complete control
[16] = Preemergence, Rate 250 g/ha, scale 0 to 10, 0 is no effect, 10 is complete control
[17] = Preemergence, Rate 500 g/ha, scale 0 to 10 (0 no effect, 10 complete control)
[18] = Rate 250 g/ha, Postemergence, scale 0 to 10, 0 is no effect, 10 is complete control
[19] = Rate 500 g/ha, Postemergence, scale 0 to 10

CCCCCn1c(=O)on(C(=O)N(c2ccc(F)cc2F)C(C)C)c1=O [Compound 636]
Plant response rating, Giant foxtail (giant foxtail; [1]): 2 | Plant response rating, Giant foxtail (giant foxtail; [2]): 7 | Giant foxtail plant response rating (giant foxtail; [3]): 9 | Plant response rating, Giant foxtail (giant foxtail; [4]): 9 | Giant foxtail plant response rating (giant foxtail; [5]): 9 | Giant foxtail plant response rating (giant foxtail; [6]): 10 | Plant response rating, Giant foxtail (giant foxtail; [7]): 10 | Plant response rating, Giant foxtail (giant foxtail; [8]): 10 | Plant response rating, Redroot pigweed (pigweed; [1]): 0 | Plant response rating, Redroot pigweed (pigweed; [2]): 0 | Redroot pigweed plant response rating (pigweed; [3]): 6 | Redroot pigweed plant response rating (pigweed; [5]): 10 | Redroot pigweed plant response rating (pigweed; [6]): 10 | Plant response rating, Redroot pigweed (pigweed; [7]): 10 | Plant response rating, Redroot pigweed (pigweed; [8]): 10 | Plant response rating, Morningglory (morningglory; [1]): 2 | Plant response rating, Morningglory (morningglory; [2]): 2 | Morningglory plant response rating (morningglory; [3]): 6 | Plant response rating, Morningglory (morningglory; [4]): 6 | Morningglory plant response rating (morningglory; [5]): 0 | Morningglory plant response rating (morningglory; [6]): 0 | Plant response rating, Morningglory (morningglory; [7]): 0 | Plant response rating, Morningglory (morningglory; [8]): 2

COCCOCn1c(=O)on(C(=O)N(c2ccc(F)cc2)C(C)C)c1=O [Compound 220]
Giant foxtail plant response rating (giant foxtail; [5]): 9 | Giant foxtail plant response rating (giant foxtail; [9]): 10 | Plant response rating, Giant foxtail (giant foxtail; [8]): 10 | Giant foxtail plant response rating (giant foxtail; [10]): 5 | Giant foxtail plant response rating (giant foxtail; [11]): 6 | Giant foxtail plant response rating (giant foxtail; [12]): 9 | Plant response rating (0 to 10; 0 is no effect, 10 is complete control), Giant foxtail (giant foxtail; Rate 250 g/ha, Postemergence): 8 | Giant foxtail plant response rating (giant foxtail; [13]): 8 | Redroot pigweed plant response rating (pigweed; [5]): 0 | Redroot pigweed plant response rating (pigweed; [9]): 8 | Plant response rating, Redroot pigweed (pigweed; [8]): 10 | Redroot pigweed plant response rating (pigweed; [10]): 0 | Redroot pigweed plant response rating (pigweed; [11]): 1 | Redroot pigweed plant response rating (pigweed; [12]): 2 | Plant response rating (0 to 10; 0 is no effect, 10 is complete control), Redroot pigweed (pigweed; Rate 250 g/ha, Postemergence): 3 | Redroot pigweed plant response rating (pigweed; [13]): 4 | Morningglory plant response rating (morningglory; [5]): 0 | Morningglory plant response rating (morningglory; [9]): 1 | Plant response rating, Morningglory (morningglory; [8]): 6 | Morningglory plant response rating (morningglory; [10]): 5 | Morningglory plant response rating (morningglory; [11]): 5 | Morningglory plant response rating (morningglory; [12]): 0 | Plant response rating (0 to 10; 0 is no effect, 10 is complete control), Morningglory (morningglory; Rate 250 g/ha, Postemergence): 8 | Morningglory plant response rating (morningglory; [13]): 8

Cc1ccccc1Cn1c(=O)on(C(=O)N(c2ccc(Cl)cc2)C(C)C)c1=O [Compound 136]
Giant foxtail plant response rating (giant foxtail; [2]): 4 | Giant foxtail plant response rating (giant foxtail; [14]): 0 | Giant foxtail plant response rating (0 to 10 scale) (giant foxtail; [15]): 4 | Giant foxtail plant response rating (giant foxtail; [16]): 10 | Giant foxtail plant response rating (giant foxtail; [17]): 10 | Giant foxtail plant response rating (giant foxtail; [10]): 0 | Plant response rating, Giant foxtail (giant foxtail; [18]): 7 | Giant foxtail plant response rating (giant foxtail; [19]): 7 | Redroot pigweed plant response rating (pigweed; [2]): 4 | Redroot pigweed plant response rating (pigweed; [14]): 7 | Redroot pigweed plant response rating (0 to 10 scale) (pigweed; [15]): 8 | Redroot pigweed plant response rating (pigweed; [16]): 10 | Redroot pigweed plant response rating (pigweed; [17]): 10 | Redroot pigweed plant response rating (pigweed; [10]): 3 | Plant response rating, Redroot pigweed (pigweed; [18]): 6 | Redroot pigweed plant response rating (pigweed; [19]): 6 | Morningglory plant response rating (morningglory; [2]): 10 | Morningglory plant response rating (morningglory; [14]): 0 | Morningglory plant response rating (0 to 10 scale) (morningglory; [15]): 0 | Morningglory plant response rating (morningglory; [16]): 0 | Morningglory plant response rating (morningglory; [17]): 0 | Morningglory plant response rating (morningglory; [10]): 6 | Plant response rating, Morningglory (morningglory; [18]): 10 | Morningglory plant response rating (morningglory; [19]): 10

CC(=O)N(C)CCn1c(=O)on(C(=O)N(c2ccc(F)cc2)C(C)C)c1=O [Compound 625]
Plant response rating, Giant foxtail (giant foxtail; [1]): 0 | Plant response rating, Giant foxtail (giant foxtail; [2]): 3 | Giant foxtail plant response rating (giant foxtail; [3]): 5 | Plant response rating, Giant foxtail (giant foxtail; [4]): 9 | Giant foxtail plant response rating (giant foxtail; [14]): 6 | Giant foxtail plant response rating (giant foxtail; [6]): 9 | Plant response rating, Giant foxtail (giant foxtail; [7]): 10 | Plant response rating, Giant foxtail (giant foxtail; [8]): 10 | Plant response rating, Redroot pigweed (pigweed; [1]): 0 | Plant response rating, Redroot pigweed (pigweed; [2]): 0 | Redroot pigweed plant response rating (pigweed; [3]): 0 | Redroot pigweed plant response rating (pigweed; [14]): 0 | Redroot pigweed plant response rating (pigweed; [6]): 0 | Plant response rating, Redroot pigweed (pigweed; [7]): 4 | Plant response rating, Redroot pigweed (pigweed; [8]): 8 | Plant response rating, Morningglory (morningglory; [1]): 0 | Plant response rating, Morningglory (morningglory; [2]): 1 | Morningglory plant response rating (morningglory; [3]): 1 | Plant response rating, Morningglory (morningglory; [4]): 2 | Morningglory plant response rating (morningglory; [14]): 0 | Morningglory plant response rating (morningglory; [6]): 0 | Plant response rating, Morningglory (morningglory; [7]): 2 | Plant response rating, Morningglory (morningglory; [8]): 3

Cc1ccccc1-n1c(=O)on(C(=O)N(c2ccc(-c3ccccc3)cc2)C(C)C)c1=O [Compound 187]
Giant foxtail plant response rating (giant foxtail; [5]): 0 | Giant foxtail plant response rating (0 to 10 scale) (giant foxtail; [15]): 0 | Giant foxtail plant response rating (giant foxtail; [16]): 0 | Giant foxtail plant response rating (giant foxtail; [17]): 0 | Giant foxtail plant response rating (giant foxtail; [10]): 0 | Giant foxtail plant response rating (giant foxtail; [11]): 0 | Plant response rating (0 to 10; 0 is no effect, 10 is complete control), Giant foxtail (giant foxtail; Rate 250 g/ha, Postemergence): 0 | Giant foxtail plant response rating (giant foxtail; [19]): 0 | Redroot pigweed plant response rating (pigweed; [5]): 0 | Redroot pigweed plant response rating (0 to 10 scale) (pigweed; [15]): 0 | Redroot pigweed plant response rating (pigweed; [16]): 0 | Redroot pigweed plant response rating (pigweed; [17]): 0 | Redroot pigweed plant response rating (pigweed; [10]): 0 | Redroot pigweed plant response rating (pigweed; [11]): 0 | Plant response rating (0 to 10; 0 is no effect, 10 is complete control), Redroot pigweed (pigweed; Rate 250 g/ha, Postemergence): 0 | Redroot pigweed plant response rating (pigweed; [19]): 0 | Morningglory plant response rating (morningglory; [5]): 0 | Morningglory plant response rating (0 to 10 scale) (morningglory; [15]): 0 | Morningglory plant response rating (morningglory; [16]): 0 | Morningglory plant response rating (morningglory; [17]): 0 | Morningglory plant response rating (morningglory; [10]): 0 | Morningglory plant response rating (morningglory; [11]): 0 | Plant response rating (0 to 10; 0 is no effect, 10 is complete control), Morningglory (morningglory; Rate 250 g/ha, Postemergence): 0 | Morningglory plant response rating (morningglory; [19]): 0

CC(C)N(C(=O)n1oc(=O)n(-c2cnn(C)c2Cl)c1=O)c1ccccc1 [Compound 122]
Giant foxtail plant response rating (giant foxtail; [2]): 2 | Giant foxtail plant response rating (giant foxtail; [14]): 7 | Giant foxtail plant response rating (0 to 10 scale) (giant foxtail; [15]): 9 | Plant response rating, Giant foxtail (giant foxtail; [9]): 9 | Giant foxtail plant response rating (giant foxtail; [17]): 9 | Giant foxtail plant response rating (giant foxtail; [10]): 2 | Plant response rating, Giant foxtail (giant foxtail; [18]): 6 | Giant foxtail plant response rating (giant foxtail; [13]): 9 | Redroot pigweed plant response rating (pigweed; [2]): 1 | Redroot pigweed plant response rating (pigweed; [14]): 0 | Redroot pigweed plant response rating (0 to 10 scale) (pigweed; [15]): 5 | Plant response rating, Redroot pigweed (pigweed; [9]): 8 | Redroot pigweed plant response rating (pigweed; [17]): 8 | Redroot pigweed plant response rating (pigweed; [10]): 0 | Plant response rating, Redroot pigweed (pigweed; [18]): 2 | Redroot pigweed plant response rating (pigweed; [13]): 5 | Morningglory plant response rating (morningglory; [2]): 3 | Morningglory plant response rating (morningglory; [14]): 0 | Morningglory plant response rating (0 to 10 scale) (morningglory; [15]): 0 | Plant response rating, Morningglory (morningglory; [9]): 0 | Morningglory plant response rating (morningglory; [17]): 0 | Morningglory plant response rating (morningglory; [10]): 1 | Plant response rating, Morningglory (morningglory; [18]): 4 | Morningglory plant response rating (morningglory; [13]): 4
